These are literature values, as cited in patent US8263578B2, “Stable bortezomib formulations” (InnoPharma, Inc., priority 2010, dated 2012).

For the data set the following is noted: 25° C.

Read-outs that look alike come from different tables or passages of the source.

For `CC(C)C[C@H](NC(=O)[C@H](Cc1ccccc1)NC(=O)c1cnccn1)B(O)O` [Bortezomib, N-(2-pyrazine) carbonyl-L-phenylalanine-L-leucine boronic acid], the degraded runs as follows: (0.5 mg/mL in ethanol:normal saline solution (2:98, pH 2.8), 1 month) 20%; (propylene glycol:ethanol:water (50:10:40), 8 months) 20%.
